According to patent publication US20150359794A1, “IMPAIRMENT OF THE LARGE RIBOSOMAL SUBUNIT PROTEIN RPL24 BY DEPLETION OR ACETYLATION” (Buck Institute for Research on Aging, priority 2014, published 2015):

Tests used:
SKBR3 cells = experiment: Polysome profiling and western blot of 60S fractions; assay type: cell-based, human; settings: TSA 1 μM, 2 h
Protocol: Since RPL24 depletion decreased the levels of three cap-dependently translated proteins, the impact of RPL24 knockdown on overall ribosome and polysome formation in these cells was evaluated. Polysome profiling, which utilizes continuous sucrose gradient fractionation to separate free 40S and 60S ribosomal subunits, 80S ribosomes, and polysomes (two or more ribosomes on one mRNA) was used. […] This observed increase in 40S and 60S subunits relative to 80S ribosomes implies a defect in 40S-60S joining induced by the RPL24 knockdown. Since eIF6 bound to the pre-60S subunit prevents joining of the 40S and 60S subunits and occurs adjacent to RPL24 on 60S (FIG. 3c), immunoblotting on all 60S-containing polysome fractions to evaluate the impact of RPL24 knockdown on eIF6 retention was performed. […] Associated with the observed 60S loss of RPL24 was a striking increase in 60S-associated eIF6 (FIG. 3d). To rule out the possibility that the observed 60S retention of eIF6 might be a false-positive or non-specific artifact of lentiviral expressed RPL24 shRNA, a functionally deficient truncation mutant of RPL24 that eliminates the last 17 amino acids was overexpressed. Polysome profiling of 293T cells expressing intact versus truncated RPL24 protein confirmed that truncated RPL24 can induce 60S retention of eIF6 (FIG. 8).
Polysome profiles to separate the 40S, 60S, 80S and polysomes are carried out by layering cell lysates over a continuous 10-50% sucrose gradient and spun at 38,000 rpm for 2 h as previously described. Fractions are collected using a Retriever 500 fraction collector with a UV (UA6) detector (ISCO Teledyne (Lincoln, Nebr.)).
FIG. 3: RPL24 knockdown reduces 80S and polysome assembly while increasing 60S retention of eIF6. […] (a) Western blots using the indicated antibodies were performed on total cell lysates to assess knockdown efficiency. (b) Lysates were applied to a continuous sucrose gradient (10-50%) and ultracentrifugation followed by fractionation was performed to separate ribosomal subunits and polysomes. […]

RPL24 = experiment: LC-MS/MS of RPL24 lysine acetylation (K27, K93) on 60S subunits and polysomes; assay type: cell-based, human; settings: SKBR3 cells, TSA 1 μM, 2 h
Protocol: Mass spectrometry studies were performed to identify sites of lysine (K) acetylation within RPL24 induced by histone deacetylase inhibition. Continuous and discontinuous sucrose gradient fractionations were performed to isolate 60S subunits and total polysomes respectively. Polyacrylamide gel electrophoresis was then performed on 60S and polysome samples and RPL24-containing bands were excised, trypsin digested, and subjected to mass spectrometry (LC-MS/MS) (FIG. 6a). Among several detected acetylated RPL24 peptides, two were increased by TSA treatment; TDGKacVFQFLNAK (acetyl-K27) (SEQ ID NO:1) and AITGASLADIM*AKacR (acetyl-K93) (SEQ ID NO:2), where the internal lysines in both peptides are N-acetylated (Kac). As the MS experiments of the 60S polysome were performed after in-gel digestion the methionine residue of the second peptide was predominantly oxidized (M*=M+16), as commonly observed during SDS PAGE processing. In independent, in-solution digestion experiments, the corresponding non-oxidized form of acetylated peptide AITGASLADIMAKacR (SEQ ID NO:3) with correlating MS/MS fragmentation pattern was identified. Representative spectra are shown for TDGKacVFQFLNAK (acetyl-K27) (SEQ ID NO:1) and AITGASLADIM*AKacR (acetyl-K93) (SEQ ID NO:2)) (FIG. 11a,b). In 3 biological replicate experiments, the amount of K27-acetylated RPL24, normalized to total protein concentration within the 60S subunit, was increased at least 2-fold within 2 h of TSA treatment. […] Given the proximity of the T. thermophilia RPL24 K26 site (that resides in a homologous region to human K27) to eIF6 (FIG. 7a), these findings implicate involvement of the TSA induced acetylation of RPL24 at K27 in preventing 40S-60S subunit joining and 60S retention of eIF6.
To prepare polysome samples for mass spectrometry, cells are treated with a histone deacetylase inhibitor and polysome pellets are prepared using a discontinuous sucrose gradient as described above. Protein concentration is determined using the Pierce BCA Protein Assay Kit (Thermo Scientific) and equal amount of protein are trypsin digested. Acetyl-lysine immunoprecipitations are carried out on resultant peptides using an antibody from Cell Signaling Technology. Acetyl-proteins are then eluted, extracted, and desalted.
To determine the acetylation status of 60S subunit proteins, cells are treated with histone deacetylase inhibitor and polysome profiles are performed as described above. The four fractions representing the 60S subunit are identified via western blots for Rack1 and RPL24. […]
Three biological replicates of polysome or 60S samples are then analyzed by LC-MS/MS using a quadrupole time-of-flight (QqTOF) TripleTOF 5600 mass spectrometer (AB SCIEX, Dublin, Calif.) coupled to an Eksigent (Dublin, Calif.) nanoLC Ultra, 2D plus. […]

CC(/C=C/C(=O)NO)=C\[C@@H](C)C(=O)c1ccc(N(C)C)cc1 [TSA, trichostatin-A]
60S RPL24 levels (SKBR3 cells): without reducing | 60S retention of eIF6 (SKBR3 cells): increasing | 80S and polysome assembly (SKBR3 cells): reduced | RPL24 K93 acetylation within the 60S subunits (RPL24): not significantly changed | induction of K93 acetylation within RPL24 associated with polysomes (RPL24): 2.5 fold | induction of RPL24 K27 acetylation within polysomes (RPL24): no significant induction | increase of K27-acetylated RPL24 within the 60S subunit, normalized to total protein (RPL24; 3 biological replicates): at least 2 fold
